Values of other authors in patent US20060177524A1, “Ocular irrigating solution” (University of Bristol, priority 1998, published 2006).

Legend:
[1] = at 25° C.
[2] = system: endothelial Na^+K^+ ATPase; details: Geroski et al 1982-83, human and rabbit corneas

O=S(=O)(O)CCCN1CCN(CCO)CC1 [EPPS, N-[2-hydroxyethyl]-piperazine-N′-[3-propanesulfonic acid]]
pKa [1]: 8.0

O=S(=O)(O)CCN1CCN(CCO)CC1 [HEPES, N-2-[hydroxyethyl]piperazine-N′-[2-ethanesulfonic acid]]
Toxicity to endothelial Na^+K^+ ATPase [2]: toxic
